US20220089575A1, “FARNESOID X RECEPTOR AGONISTS AND USES THEREOF” (Metacrine, Inc., priority 2017, published 2022)

molecular target: T1, hFXR (Homo sapiens, UniProt Q96RI1); assay: In Vitro FXR Assay (TK): TK-ECRE-luc reporter in transfected CV-1 cells; assay type: cell-based; settings: 18 hrs, luminescence, maximum efficacy of <25% of the Fexarmine control classified as '+'
T1 construct: expressed in transfected cells; host or cells: CV-1 cells
T1 sequence (Q96RI1 1-486): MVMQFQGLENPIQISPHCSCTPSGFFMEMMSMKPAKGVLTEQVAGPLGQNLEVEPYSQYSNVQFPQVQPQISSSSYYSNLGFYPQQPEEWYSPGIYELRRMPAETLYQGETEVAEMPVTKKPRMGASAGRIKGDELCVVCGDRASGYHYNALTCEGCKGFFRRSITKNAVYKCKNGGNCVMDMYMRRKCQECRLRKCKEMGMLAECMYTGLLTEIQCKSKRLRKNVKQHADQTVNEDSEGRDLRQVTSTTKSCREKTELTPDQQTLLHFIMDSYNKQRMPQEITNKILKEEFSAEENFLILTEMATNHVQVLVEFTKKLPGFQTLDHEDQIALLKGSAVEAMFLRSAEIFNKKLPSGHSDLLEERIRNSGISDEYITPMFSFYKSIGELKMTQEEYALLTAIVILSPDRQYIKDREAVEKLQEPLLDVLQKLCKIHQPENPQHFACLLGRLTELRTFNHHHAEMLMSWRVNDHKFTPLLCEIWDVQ
T1 sequence (P19793 1-462 partner): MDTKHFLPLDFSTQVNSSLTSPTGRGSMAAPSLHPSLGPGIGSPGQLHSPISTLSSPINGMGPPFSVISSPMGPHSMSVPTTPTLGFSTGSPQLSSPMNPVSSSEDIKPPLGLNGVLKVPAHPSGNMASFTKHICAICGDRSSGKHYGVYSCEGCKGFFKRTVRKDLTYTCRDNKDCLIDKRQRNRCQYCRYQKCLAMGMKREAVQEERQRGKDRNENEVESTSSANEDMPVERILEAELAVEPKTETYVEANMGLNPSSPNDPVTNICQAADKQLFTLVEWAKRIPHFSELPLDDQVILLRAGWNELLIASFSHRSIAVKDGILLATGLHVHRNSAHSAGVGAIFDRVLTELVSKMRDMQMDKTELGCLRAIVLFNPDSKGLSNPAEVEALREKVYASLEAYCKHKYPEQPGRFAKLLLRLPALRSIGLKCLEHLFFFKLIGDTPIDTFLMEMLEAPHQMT
Procedure, shortened: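 Luciferase read-out after 18 h compound exposure of CV-1 cells carrying transfected hFXR plus hRXR expression plasmids, TK-ECRE-luc reporter and pCMX-YFP. Cells cultured in charcoal-stripped FBS before transfection; compounds serially diluted in DMSO.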

| SMILES | EC50 [nM] |
| --- | --- |
| COc1ccc([C@H]2CC[C@H](CN(c3cccc(-c4cnn(C(C)C)c4)c3)C(=O)[C@H]3CC[C@H](OC(=O)NCCCO)CC3)CC2)cc1C [Compound 6.14, trans-4-((3-(1-Isopropyl-1H-pyrazol-4-yl)phenyl)((trans-4-(4-methoxy-3-methylphenyl)cyclohexyl)methyl)carbamoyl)cyclohexyl (3-hydroxypropyl)carbamate] | ≤ 250 |
| COc1ccc([C@H]2CC[C@H](CN(c3cc(-c4coc(C(C)C)n4)ccn3)C(=O)[C@H]3CC[C@H](OC(=O)N4CC(CO)C4)CC3)CC2)nc1C [Compound 7.97, trans-4-((4-(2-Isopropyloxazol-4-yl)pyridine-2-yl)((trans-4-(5-methoxy-6-methylpyridin-2-yl)cyclohexyl)methyl)carbamoyl)cyclohexyl 3-(hydroxymethyl)azetidine-1-carboxylate] | ≤ 250 |
| COc1ncc(-c2cccc(N(C[C@H]3CC[C@H](c4ccc(OC)c(C)c4)CC3)C(=O)[C@H]3CC[C@H](OCCO)CC3)c2)s1 [Compound 13.03, trans-4-(2-Hydroxyethoxy)-N-((trans-4-(4-methoxy-3-methylphenyl)cyclohexyl)methyl)-N-(3-(2-methoxythiazol-5-yl)phenyl)cyclohexanecarboxamide] | ≤ 250 |
| COc1ccc([C@H]2CC[C@H](CN(c3cc(-c4coc(C5CC5)n4)ccn3)C(=O)[C@H]3CC[C@H](OC(=O)NC(C)(C)CO)CC3)CC2)nc1C [Compound 6.90, trans-4-((4-(2-Cyclopropyloxazol-4-yl)pyridin-2-yl)((trans-4-(5-methoxy-6-methylpyridin-2-yl)cyclohexyl)methyl)carbamoyl)cyclohexyl (1-hydroxy-2-methylpropan-2-yl)carbamate] | ≤ 250 |
| COc1ccc([C@H]2CC[C@H](CN(c3cc(-c4coc(C(C)C)n4)ccn3)C(=O)[C@H]3CC[C@H](OC(=O)N4CCN(C)CC4)CC3)CC2)nc1C [Compound 6.77, trans-4-((4-(2-Isopropyloxazol-4-yl)pyridine-2-yl)((trans-4-(5-methoxy-6-methylpyridin-2-yl)cyclohexyl)methyl)carbamoyl)cyclohexyl 4-methylpiperazine-1-carboxylate] | ≤ 250 |
| COc1ccc([C@H]2CC[C@H](CN(c3cc(-c4cnc(C(C)C)s4)ccn3)C(=O)[C@H]3CC[C@H](OC(=O)NCCO)CC3)CC2)cc1C [Compound 6.03, trans-4-((4-(2-Isopropylthiazol-5-yl)pyridin-2-yl)((trans-4-(4-methoxy-3-methylphenyl)cyclohexyl)methyl)carbamoyl)cyclohexyl (2-hydroxyethyl) carbamate] | ≤ 250 |
| CNC(=O)O[C@H]1CC[C@H](C(=O)N(C[C@H]2CC[C@H](c3ccc(OC)c(C)n3)CC2)c2cc(-c3cnn(C4CC4)c3)ccn2)CC1 [Compound 5.13, trans-4-((4-(1-Cyclopropyl-1H-pyrazol-4-yl)pyridin-2-yl)((trans-4-(5-methoxy-6-methylpyridin-2-yl)cyclohexyl)methyl)carbamoyl)cyclohexyl methylcarbamate] | ≤ 250 |
| COCC1CN(C(=O)O[C@H]2CC[C@H](C(=O)N(C[C@H]3CC[C@H](c4ccc(OC)c(C)c4)CC3)c3cccc(-c4cnn(C5CC5)c4)c3)CC2)C1 [Compound 7.26, trans-4-((3-(1-Cyclopropyl-1H-pyrazol-4-yl)phenyl)((trans-4-(4-methoxy-3-methylphenyl)cyclohexyl)methyl)carbamoyl)cyclohexyl 3-(methoxymethyl)azetidine-1-carboxylate] | ≤ 250 |
| CNC(=O)O[C@H]1CC[C@H](C(=O)N(C[C@H]2CC[C@H](c3ccc(OC)c(C)c3)CC2)c2cccc(-c3cnn(C4CC4)c3)c2)CC1 [Compound 1.04, trans-4-((3-(1-Cyclopropyl-1H-pyrazol-4-yl)phenyl)((trans-4-(4-methoxy-3-methylphenyl)cyclohexyl)methyl)carbamoyl)cyclohexyl methylcarbamate] | ≤ 250 |

Now from value to compound:

| EC50 [nM] | SMILES |
| --- | --- |
| 250 to 1000 | COc1ccc([C@H]2CC[C@H](CN(c3cccc(-c4cnc(C5CC5)s4)c3)C(=O)[C@H]3CC[C@H](NC(=O)CN)CC3)CC2)cc1C [Compound 31.07, trans-4-(2-Aminoacetamido)-N-(3-(2-cyclopropylthiazol-5-yl)phenyl)-N-((trans-4-(4-methoxy-3-methylphenyl)cyclohexyl)methyl) cyclohexanecarboxamide] |
| ≤ 250 | CN(C)c1ccc([C@H]2CC[C@H](CN(c3cccc(-c4cnc(C5CC5)s4)c3)C(=O)[C@H]3CC[C@H](C(=O)O)CC3)CC2)cn1 [Compound 16, trans-4-((3-(2-Cyclopropylthiazol-5-yl)phenyl)((trans-4-(6-(dimethylamino)pyridin-3-yl)cyclohexyl)methyl)carbamoyl)cyclohexanecarboxylic acid] |
| ≥ 1000 | COc1ccc([C@H]2CC[C@H](CN(c3cccc(-c4cnn(C5CC5)c4)c3)C(=O)[C@H]3CC[C@H](NC(=O)CNC(C)=O)CC3)CC2)cc1C [Compound 31.01, trans-4-(2-Acetamidoacetamido)-N-(3-(1-cyclopropyl-1H-pyrazol-4-yl)phenyl)-N-((trans-4-(4-methoxy-3-methylphenyl)cyclohexyl)methyl)cyclohexanecarboxamide] |
| ≤ 250 | CN(C)c1ccc([C@H]2CC[C@H](CN(c3cccc(-c4coc(C5CC5)n4)c3)C(=O)[C@H]3CC[C@H](CC(=O)O)CC3)CC2)cn1 [Compound 21.06, 2-(trans-4-((3-(2-Cyclopropyloxazol-4-yl)phenyl)((trans-4-(6-(dimethylamino)pyridin-3-yl)cyclohexyl)methyl)carbamoyl)cyclohexyl) acetic acid] |
| ≤ 250 | COc1ccc([C@H]2CC[C@H](CN(c3cc(-c4coc(C5CC5)n4)ccn3)C(=O)[C@H]3CC[C@H](NC(C)=O)CC3)CC2)cc1C [Compound 26.20, trans-4-Acetamido-N-(4-(2-cyclopropyloxazol-4-yl)pyridine-2-yl)-N-((trans-4-(4-methoxy-3-methylphenyl)cyclohexyl)methyl) cyclohexanecarboxamide] |
| ≤ 250 | COc1ccc([C@H]2CC[C@H](CN(c3cccc(-c4coc(C5CC5)n4)c3)C(=O)[C@H]3CC[C@H](C(=O)O)CC3)CC2)nc1C#N [Compound 18.05, trans-4-(((trans-4-(6-Cyano-5-methoxypyridin-2-yl)cyclohexyl)methyl)(3-(2-cyclopropyloxazol-4-yl)phenyl)carbamoyl) cyclohexanecarboxylic acid] |
| 250 to 1000 | COc1ncc(-c2cccc(N(C[C@H]3CC[C@H](c4ccc(OC)c(C)c4)CC3)C(=O)[C@H]3CC[C@H](CNC(=O)OC(C)(C)C)CC3)c2)s1 [Compound 25.02, tert-Butyl ((trans-4-(((trans-4-(4-methoxy-3-methylphenyl)cyclohexyl)methyl)(3-(2-methoxythiazol-5-yl)phenyl)carbamoyl)cyclohexyl)methyl)carbamate] |
| ≤ 250 | COc1ccc([C@H]2CC[C@H](CN(c3cccc(-c4cnn(C5CC5)c4)c3)C(=O)[C@H]3CC[C@H](NC(=O)COCCO)CC3)CC2)cc1C [Compound 32.01, trans-N-(3-(1-Cyclopropyl-1H-pyrazol-4-yl)phenyl)-4-(2-(2-hydroxyethoxy)acetamido)-N-((trans-4-(4-methoxy-3-methylphenyl)cyclohexyl)methyl)cyclohexanecarboxamide] |
| 250 to 1000 | COc1ncc(-c2cccc(N(C[C@H]3CC[C@H](c4ccc(OC)c(C)c4)CC3)C(=O)[C@H]3CC[C@H](C(=O)NCCN(C)C)CC3)c2)s1 [Compound 24.05, trans-N^1-(2-(Dimethylamino)ethyl)-N^4-((trans-4-(4-methoxy-3-methylphenyl)cyc1ohexyl)methyl)-N^4-(3-(2-methoxythiazol-5-yl)phenyl)cyclohexane-1,4-dicarboxamide] |
| ≤ 250 | CN(C)c1ccc(C23CCC(CN(c4cccc(-c5cnc(C6CC6)s5)c4)C(=O)[C@H]4CC[C@H](C(=O)O)CC4)(CC2)CC3)cn1 [Compound 17.06, trans-4-((3-(2-Cyclopropylthiazol-5-yl)phenyl)((4-(6-(dimethylamino)pyridin-3-yl)bicyclo[2.2.2]octan-1-yl)methyl)carbamoyl) cyclohexanecarboxylic acid] |
| ≥ 1000 | COc1ccc([C@H]2CC[C@H](CN(c3cc(-c4coc(C5CC5)n4)ccn3)C(=O)[C@H]3CC[C@H](CNC(=O)C4CC(N(C)C)C4)CC3)CC2)nc1C (stereo partly drawn) [Compound 30.05, trans-N-(4-(2-Cyclopropyloxazol-4-yl)pyridin-2-yl)-4-((3-(dimethylamino)cyclobutanecarboxamido)methyl)-N-((trans-4-(5-methoxy-6-methylpyridin-2-yl)cyclohexyl)methyl) cyclohexanecarboxamide] |
